Data reported in publication PMC8082182 (Frontiers in Pharmacology, 2021).
Like-named read-outs stand apart in the source and are kept apart here.

Key:
[1] = Unified one-compartment population PK model (NONMEM, FOCE with interaction) for Chinese adults and pediatric patients
Text: (§1) The TDM concentration data of therapeutic drugs in adults and pediatric patients with Gram-positive bacterial infection were collected.
(§2) The population pharmacokinetics model was composed of a structural model and random effect models using the first-order conditional estimation method (FOCE) with interaction. Demographic variables (e.g., gender, age, weight, height, body mass index [BMI]), renal function descriptors (serum creatinine, eGFR, creatinine clearance rate [CLCr], and albumin, etc.), and disease conditions (e.g., surgery or injury, chronic kidney disease, diabetes, cancer) were tested as potential covariates. Covariates were evaluated using the stepwise forward-selection method and backward elimination. The population PK model for adults and pediatric patients were evaluated respectively and the model parameters were compared. In order to unify the population PK model for adults and pediatric patients, the datasets were merged and the covariates were consolidated and reevaluated. […] The established population PK model was used to simulate individual PK parameters (Cmin, Cmax, AUC0–24) by Bayesian feedback method for the further PK/PD evaluation.

[2] = for AUC0–24, median (IQR) / Cmax,ss, Median (IQR): Improved patients
Text: as §1, §2

[3] = Pulmonary, Not improved patients, IQR not reported for n < 5

CN[C@H](CC(C)C)C(=O)N[C@H]1C(=O)N[C@@H](CC(N)=O)C(=O)N[C@H]2C(=O)N[C@H]3C(=O)N[C@H](C(=O)N[C@H](C(=O)O)c4cc(O)cc(O)c4-c4cc3ccc4O)[C@H](O)c3ccc(c(Cl)c3)Oc3cc2cc(c3O[C@@H]2O[C@H](CO)[C@@H](O)[C@H](O)[C@H]2O[C@H]2C[C@](C)(N)[C@H](O)[C@H](C)O2)Oc2ccc(cc2Cl)[C@H]1O [vancomycin]
Age effect on V (θ5) ([1]; bootstrap median): 0.331
Body weight effect on V (θ6) ([1]; bootstrap median): 0.347
V (θ2) ([1]; bootstrap median): 44.8 L
CL (θ1) ([1]; bootstrap median, 1,000 times): 3.82 L/h
Age effect on V (θ5) ([1]; final model estimate, exponent): 0.33
Body weight effect on V (θ6) ([1]; final model estimate, exponent): 0.349
V (θ2) ([1]; final model estimate, typical value at AGE 55, WT 58.25): 44.7 L
CL (θ1) ([1]; final model estimate, typical value at CLCr 90.28, WT 58.25, adults and pediatric patients): 3.83 L/h
AUC0–24, median (IQR) ([2]; Bloodstream): 215.9 (172.33, 305.85) hr*mg/L
Cmax,ss, Median (IQR) ([2]; Bloodstream): 23.32 (17.20, 26.57) mg/L
Cmax,ss, Median ([2]; Bloodstream, Not improved patients, IQR not reported for n < 5): 26020 ng/mL
AUC0–24, median (IQR) ([2]; Central nerve system): 303.3 (204.97, 386.18) hr*mg/L
Cmax,ss, Median (IQR) ([2]; Central nerve system): 28.11 (24.75, 30.66) mg/L
Cmax,ss, Median ([2]; Central nerve system, Not improved patients, IQR not reported for n < 5): 21410 ng/mL
Cmax,ss, Median (IQR) ([2]; Endocarditis): 21.50 (17.20, 23.70) mg/L
AUC0–24, median (IQR) ([2]; Overall): 217.5 (172.87, 286.34) hr*mg/L
AUC0–24, median (IQR) ([2]; Pulmonary): 219.2 (183.44, 266.38) hr*mg/L
Cmax,ss, Median (IQR) ([2]; Pulmonary): 20.24 (16.24, 28.07) mg/L
Cmax,ss, Median [2, 3]: 22600 ng/mL
Cmin,ss, Median [2, 3]: 3320 ng/mL
AUC0–24, median (IQR) ([2]; Urinary tract): 196.2 (145.03, 287.92) hr*mg/L
Cmax,ss, Median (IQR) ([2]; Urinary tract): 22.08 (15.80, 25.63) mg/L
Cmax,ss, Median ([2]; Urinary tract, Not improved patients, IQR not reported for n < 5): 29180 ng/mL
